From paper PMC10542788, “Discovery of a cystathionine γ-lyase (CSE) selective inhibitor targeting active-site pyridoxal 5′-phosphate (PLP) via Schiff base formation” (Scientific Reports, 2023)
“Also recorded” adds a separate entry of the source.

Key:
[1] = biological target: T1, rCBS (Rattus norvegicus, UniProt P32232); test: rCBS inhibition, HSip-1 fluorescence; type: biochemical; conditions: 30 µM
T1 construct: GST (N); HA (C); made in house; host or cells: E. coli BL21
T1 sequence (P32232 1-561): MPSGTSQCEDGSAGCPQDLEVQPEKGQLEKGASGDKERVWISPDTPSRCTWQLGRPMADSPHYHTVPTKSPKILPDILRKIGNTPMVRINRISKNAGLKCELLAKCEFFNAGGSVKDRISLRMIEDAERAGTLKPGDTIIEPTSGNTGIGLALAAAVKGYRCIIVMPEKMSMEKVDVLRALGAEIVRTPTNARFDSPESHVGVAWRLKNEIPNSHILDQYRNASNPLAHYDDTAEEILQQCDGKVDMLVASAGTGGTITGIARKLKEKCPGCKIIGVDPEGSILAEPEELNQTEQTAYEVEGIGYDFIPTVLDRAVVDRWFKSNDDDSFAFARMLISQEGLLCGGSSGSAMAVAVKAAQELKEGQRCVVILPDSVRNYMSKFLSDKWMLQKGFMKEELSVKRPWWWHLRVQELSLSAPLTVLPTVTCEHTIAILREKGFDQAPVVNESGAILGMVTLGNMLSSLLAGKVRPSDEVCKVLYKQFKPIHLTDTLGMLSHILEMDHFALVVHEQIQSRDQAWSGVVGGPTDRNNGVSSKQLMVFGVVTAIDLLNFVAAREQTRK
Protocol: The selectivity of 1, 2 and PAG for rCSE over other RSS-producing enzymes, CBS and 3MST, was examined (Fig. 4a). CBS is a PLP-dependent enzyme, like CSE, and produces H2S from cysteine and homocysteine as substrates. 3MST is also an H2S-producing enzyme, but is not PLP-dependent and uses 3-mercaptopyruvate as a substrate. The amount of H2S produced by CBS or 3MST was evaluated in the presence or absence of the inhibitor by measuring the fluorescence intensity of HSip-1. […] We also examined the inhibitory activity towards two other PLP-dependent enzymes, MGL and ALT. MGL metabolizes L-methionine to α-ketobutyric acid, methanethiol and ammonia, and is inhibited by PAG[14]. MGL also produces H2S from homocysteine as a substrate, and this activity of MGL can be measured by fluorescence detection with HSip-1. […] The enzymatic activity of ALT can be assessed by means of a coupled assay using the reduction of pyruvate to L-lactate with lactate dehydrogenase and NADH and measuring the change in absorption of NADH.
10 µL of 2.5 mM cysteine and 2.5 mM homocysteine in 30 mM HEPES (pH 7.4) was added to 10 µL of a solution containing 20 µg/mL rCBS, 50 µM PLP, 100 µM SAM, 1 µM HSip-1, 0.005% tween 20, 0.5% DMSO and various concentrations of the inhibitors. The mixture was incubated at 37 °C for 2 h and the fluorescence intensity of HSip-1 was measured with a microplate reader.

[2] = biological target: T2, rCSE (Rattus norvegicus, UniProt P18757); test: SPR measurement of binding between rCSE and 1; design: made in house; host or cells: E. coli
Protocol: Moreover, we performed surface plasmon resonance (SPR) assay to investigate the binding kinetics between rCSE and 1. rCSE was immobilized on a sensor chip of an SPR sensor, and various concentrations (6.25, 12.5, 25 and 50 µM) of 1 were flowed over it. The sensor chip was flushed with buffer solution not containing 1 before each concentration change of 1. […] In SPR binding studies between small molecule ligands and proteins, the washing process often markedly decreases the SPR signal.
The interaction between rCSE and oxamic hydrazide was analyzed using a Biacore T200 SPR instrument (Cytiva). A CM7 Biacore sensor chip (Cytiva) was used to immobilize rCSE at approximately 35,000 RU after activation with N-hydroxysuccinimide/N-ethyl-N′-(3-dimethylaminopropyl) carbodiimide hydrochloride. Acetate buffer (pH 5.5) was used to dilute rCSE. The activated surface of the sensor was blocked with 1 M ethanolamine. The interaction between rCSE and oxamic hydrazide was measured by injecting increasing concentrations of oxamic hydrazide into the sensor chip. The interaction was measured in 20 mM HEPES (pH 7.4) containing 150 mM NaCl, 0.5 mM TCEP, 100 µM PLP, 0.005% (v/v) Tween-20 and 1% (v/v) DMSO as a cosolvent.

[3] = biological target: T2, rCSE; test: rCSE inhibition, cysteine persulfide (sulfane sulfur) production from cystine detected with SSP4; type: biochemical; design: His-tag (C); made in house; host or cells: E. coli BL21; conditions: cystine as substrate, SSP4 probe, mean ± S.E.
Protocol: We further examined whether or not 1 can inhibit the production of cysteine persulfide from cystine by CSE (Supplementary Fig. S5)[10], using a commercially available sulfane sulfur-detecting probe, SSP4.
10 µL of 0.5 mM cystine solution in 30 mM HEPES (pH 7.4) was added to 10 µL of solution containing 50 µg/mL rCSE, 100 µM PLP, 1 µM SSP4 (Dojindo), 0.005% tween 20 and various concentrations of the inhibitor (0.5% DMSO as a cosolvent). The mixture was incubated at 37 °C for 60 min and the fluorescence intensity of SSP4 was measured with a microplate reader.

T2 sequence (P18757 whole entry): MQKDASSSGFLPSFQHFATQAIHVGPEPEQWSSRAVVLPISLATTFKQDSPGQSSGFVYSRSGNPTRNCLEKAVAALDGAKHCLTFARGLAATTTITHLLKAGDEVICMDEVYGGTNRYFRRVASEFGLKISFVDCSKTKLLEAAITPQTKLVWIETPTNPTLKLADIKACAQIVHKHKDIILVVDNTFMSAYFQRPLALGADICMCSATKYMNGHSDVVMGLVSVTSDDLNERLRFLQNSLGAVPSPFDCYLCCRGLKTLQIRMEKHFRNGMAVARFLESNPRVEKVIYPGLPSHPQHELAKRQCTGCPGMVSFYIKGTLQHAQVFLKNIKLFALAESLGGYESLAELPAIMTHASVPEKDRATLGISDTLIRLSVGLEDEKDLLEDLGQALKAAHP

selectivity for CSE over CBS [1]: high selectivity for CSE over CBS | binding to rCSE (SPR) ([2]; 6.25, 12.5, 25 and 50 µM): increased concentration-dependently | IC50 [3]: 33 ± 3 µM
Compound: NNC(=O)C(N)=O [Compound 1, oxamic hydrazide]
dissociation from rCSE during washing (SPR) ([2]; washing with buffer not containing 1): little dissociation occurs; also recorded: no dissociation
